Results as given in the NIST ThermoML archive (doi:10.1016/j.jct.2014.10.015).
± gives the expanded uncertainty stated by the source.

Experiment: mn = molality of the nth substance listed, in mol/kg
Details: 101.3 kPa, Liquid, Vibrating tube method

O=c1cc[nH]c(=O)[nH]1 [2,4(1H,3H)-pyrimidinedione] + O
mass density [kg/m3]
Details	288.15 K	298.15 K	308.15 K	318.15 K
m1 = 0.00553	999.354 ± 0.088	997.267 ± 0.089	994.275 ± 0.09	990.452 ± 0.092
m1 = 0.00878	–	997.396 ± 0.089	–	–
m1 = 0.01162	999.599 ± 0.088	997.507 ± 0.09	994.508 ± 0.09	990.68 ± 0.092
m1 = 0.01202	–	997.522 ± 0.09	–	–
m1 = 0.01509	999.736 ± 0.088	997.643 ± 0.088	994.639 ± 0.09	990.808 ± 0.091
m1 = 0.01724	–	997.727 ± 0.089	–	–
m1 = 0.01985	999.924 ± 0.087	997.828 ± 0.088	994.818 ± 0.09	990.984 ± 0.091
m1 = 0.02348	–	997.97 ± 0.089	–	–
m1 = 0.02387	–	997.985 ± 0.089	–	–
m1 = 0.02487	–	998.023 ± 0.088	–	–
m1 = 0.02578	1000.15 ± 0.088	998.059 ± 0.089	995.038 ± 0.09	991.203 ± 0.091
m1 = 0.03026	1000.33 ± 0.088	998.232 ± 0.088	995.205 ± 0.09	991.367 ± 0.091

Nc1cc[nH]c(=O)n1 [4-amino-2-hydroxypyrimidine] + O
mass density [kg/m3]
Details	288.15 K	298.15 K	308.15 K	318.15 K
m1 = 0.00616	999.374 ± 0.088	997.282 ± 0.089	994.295 ± 0.09	990.472 ± 0.092
m1 = 0.01095	999.56 ± 0.088	997.461 ± 0.089	994.473 ± 0.09	990.648 ± 0.092
m1 = 0.01278	–	997.529 ± 0.089	–	–
m1 = 0.01633	999.767 ± 0.088	997.66 ± 0.088	994.67 ± 0.09	990.845 ± 0.091
m1 = 0.01855	–	997.743 ± 0.089	–	–
m1 = 0.01892	–	997.756 ± 0.089	–	–
m1 = 0.01961	999.894 ± 0.088	997.779 ± 0.089	994.791 ± 0.09	990.964 ± 0.091
m1 = 0.02682	1000.17 ± 0.088	998.042 ± 0.089	995.052 ± 0.09	991.228 ± 0.091
m1 = 0.02766	–	998.073 ± 0.089	–	–
m1 = 0.02813	–	998.09 ± 0.089	–	–
m1 = 0.03302	1000.4 ± 0.088	998.264 ± 0.088	995.271 ± 0.09	991.452 ± 0.091
m1 = 0.0353	–	998.345 ± 0.088	–	–

Cl.N=C(N)N [guanidine hydrochloride] + O
mass density [kg/m3]
Details	m1 = 0.1	m1 = 0.25	m1 = 0.5	m1 = 0.75	m1 = 1
288.15 K	1001.93 ± 0.089	1006.02 ± 0.091	1012.56 ± 0.095	1018.77 ± 0.099	1024.63 ± 0.1
298.15 K	999.788 ± 0.088	1003.75 ± 0.09	1010.1 ± 0.094	1016.1 ± 0.097	1021.79 ± 0.1
308.15 K	996.735 ± 0.089	1000.63 ± 0.088	1006.86 ± 0.092	1012.74 ± 0.095	1018.36 ± 0.099
318.15 K	992.885 ± 0.091	996.736 ± 0.089	1002.87 ± 0.089	1008.68 ± 0.093	1014.2 ± 0.096

Cc1cn([C@H]2CC(O)[C@@H](CO)O2)c(=O)[nH]c1=O (stereo partly drawn) [thymidine] + O
mass density [kg/m3]
Details	m1 = 0.00963	m1 = 0.01114	m1 = 0.01478	m1 = 0.02291	m1 = 0.02594	m1 = 0.0288
288.15 K	999.851 ± 0.18	999.964 ± 0.18	1000.24 ± 0.18	1000.84 ± 0.18	1001.06 ± 0.18	1001.27 ± 0.18
298.15 K	997.759 ± 0.18	997.871 ± 0.18	998.139 ± 0.18	998.733 ± 0.18	998.954 ± 0.18	999.162 ± 0.18
308.15 K	994.768 ± 0.18	994.878 ± 0.18	995.142 ± 0.18	995.73 ± 0.18	995.947 ± 0.18	996.152 ± 0.18
318.15 K	990.937 ± 0.18	991.046 ± 0.18	991.306 ± 0.18	991.881 ± 0.18	992.094 ± 0.18	992.294 ± 0.18

Cc1c[nH]c(=O)[nH]c1=O [thymine] + O
mass density [kg/m3]
Details	m1 = 0.00771	m1 = 0.01299	m1 = 0.01771	m1 = 0.02319	m1 = 0.02665	m1 = 0.03315
288.15 K	999.423 ± 0.088	999.622 ± 0.088	999.797 ± 0.088	1000 ± 0.087	1000.13 ± 0.088	1000.37 ± 0.088
298.15 K	997.334 ± 0.089	997.53 ± 0.089	997.704 ± 0.088	997.906 ± 0.088	998.033 ± 0.088	998.27 ± 0.088
308.15 K	994.344 ± 0.09	994.535 ± 0.09	994.705 ± 0.09	994.901 ± 0.09	995.023 ± 0.09	995.252 ± 0.09
318.15 K	990.518 ± 0.092	990.703 ± 0.092	990.867 ± 0.091	991.055 ± 0.091	991.172 ± 0.091	991.393 ± 0.091
